From patent US20250296909A1, “NOVEL BENZENE DERIVATIVE AND IMMUNOSUPPRESSION-RELATED USE THEREOF” (PROVIBIO CO., LTD., priority 2021, published 2025) come the findings set out here.

Assay [1] concerns spleen T cells. Briefly: Cytokine secretion by anti-CD3/CD28-activated T cells (Cytometric Bead Array). The format is cell-based, C57BL/6 mice. The settings on record: 30 μM. As to the method: To confirm the effect of compounds of the present invention on the secretion of cytokines by T cells, the following experiment was conducted.
Spleens were harvested and minced from C57BL/6 mice at 7 weeks of age, and single cells were isolated using a strainer (40 μm pore size, SPL). Red blood cells were removed using ACK (Ammonium-Chloride-Potassium) lysis buffer to isolate only leukocytes. These were then reacted with 10 v/v % CD90.2 microbeads (130-121-278, Miltenyi Biotech.) at 4° C. for 20 minutes, resulting in the isolation of spleen T cells from magnetic-based purification. The T cells were cultured in a 96-well plate at an amount of 2×10^5 cells/well. For T cell activation, each well was treated with anti-CD3/CD28 antibodies at a concentration of 1 μg/mL. Subsequently, Vehicle (DMSO) and compounds (Compound 14, Compound 19, Compound 26, Compound 31, Compound 35, Compound 40, Compound 41, Compound 56, Compound 69, Compound 75) at a concentration of 30 μM were treated in each well, and it was cultured at 37° C. in a 5% CO2 incubator. After 24 and 72 hours, the T cell culture medium was taken, and centrifugation was performed at 13,000 rpm for 10 minutes to obtain the supernatant.
To measure the concentration of cytokines present in the T cell culture medium, Mouse Th1/Th2/Th17 Cytokine CBA Kit (Cytometric Bead Array kit) 560485 from BD Science was utilized for flow cytometry analysis. The secretion levels of IL-2 at 24 hours after each drug treatment, and IFN-γ, TNF-α, and IL-17A at 72 hours were measured after each drug treatment.

Assay [2] has as its system spleen T cells. As to the kind of experiment: T cell proliferation inhibition (CFSE, FACS), CD3/CD28-activated spleen T cells. The format is cell-based, C57BL/6 mice. The essentials:
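CFSE-labelled splenic T cells (CD90.2-isolated, 7-week C57BL/6 mice), 2×10^5/well, activated with anti-CD3/CD28 (0.5 μg/mL each) plus compound at 10, 30 or 50 μM in triplicate for 3 days at 37 °C. CFSE dilution by flow cytometry; inhibition % relative to CD3/CD28+DMSO proliferation.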

Molecules are shown by their SMILES.

For the compound `CCCCCCCCCCCCNC(=O)c1cccnc1N` [Compound 69], the “secretion of IL-2” value in the assay on spleen T cells [1] (24 hours after treatment, FIG. 3) is recorded as “significant decrease”. Moreover, in the assay with spleen T cells [1] (72 hours after treatment), the “secretion of IFN-γ” value is “significant decrease”, the “secretion of IL-17A” value is reported as “significant decrease” and the “secretion of TNF-α” value was “significant decrease”. Moreover, in the assay with spleen T cells [2] (Mus musculus, T-cell, 72 h, Table 2, 10 μM, 3 days, relative to CD3/CD28+DMSO, read-out: Proliferation inhibition rate (%)), the inhibition at 10 µM came to 99%. The inhibition at 30 µM in the assay on spleen T cells [2] (Mus musculus, T-cell, 72 h, Table 2, 30 μM, 3 days, relative to CD3/CD28+DMSO, read-out: Proliferation inhibition rate (%)) was 100%. The inhibition at 50 µM in the assay with spleen T cells [2] (Mus musculus, T-cell, 72 h, Table 2, 50 μM, 3 days, relative to CD3/CD28+DMSO, read-out: Proliferation inhibition rate (%)) was 100%. The “cell proliferation read by FACS (FIG. 2)” value with spleen T cells [2] (concentrations ranging from 10 to 30 μM) is given as “inhibition of cell proliferation”.
